Drawing on patent US10233182B2, “Substituted spirocyclic inhibitors of autotaxin” (X-Rx, Inc., priority 2014, dated 2019), this text covers IC50 for 19 compounds.

Where a name gives a salt, the structure may show the parent alone.

For this assay, the target named is Autotaxin (Homo sapiens (Human), UniProt Q13822). The assay is described as follows: Autotaxin LPC Cascade Assay. Type of assay: biochemical. The note with it: Autotaxin 5 nM, LPC 100 μM, choline oxidase/HRP/Ampliflu Red fluorescence read-out, 2% DMSO, RT; read-out: IC50 ATX Activity. Summed up:
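Choline liberated from LPC by autotaxin during 1 h, after a 10-min RT compound preincubation, was converted through choline oxidase/HRP to a fluorescent Ampliflu Red product.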
`CC(C)[C@@H](NC(=O)c1cc(C(F)(F)F)ccc1F)C(=O)N1CCC2(CC1)C(=O)N(C)C(=O)N2c1ccc2ocnc2c1` [Example 245, (R)—N-(1-(1-(Benzo[d]oxazol-5-yl)-3-methyl-2,4-dioxo-1,3,8-triazaspiro[4.5]decan-8-yl)-3-methyl-1-oxobutan-2-yl)-2-fluoro-5-(trifluoromethyl)benzamide]: the half-maximal inhibitory concentration (IC50) is less than 0.5 µM.

`CC(C)[C@@H](NC(=O)c1cc(C(F)(F)F)ccc1F)C(=O)N1CCC2(CC1)C(=O)N(C)C(=O)N2[C@H](C)c1ccccc1` [Example 80, 2-Fluoro-N—((R)-3-methyl-1-(3-methyl-2,4-dioxo-1-((R)-1-phenylethyl)-1,3,8-triazaspiro[4.5]decan-8-yl)-1-oxobutan-2-yl)-5-(trifluoromethyl)benzamide]: the concentration for half-maximal inhibition (IC50) is no less than 1 µM.

Turning to `CC(C)[C@@H](NC(=O)c1nccs1)C(=O)N1CCC2(CC1)C(=O)N(C)C(=O)N2c1ccc2[nH]ncc2c1` [Example 234, (R)—N-(1-(1-(1H-Indazol-5-yl)-3-methyl-2,4-dioxo-1,3,8-triazaspiro[4.5]decan-8-yl)-3-methyl-1-oxobutan-2-yl)thiazole-2-carboxamide], the half-inhibitory concentration (IC50) was no less than 1 µM.

As to `COc1ccc(F)c(C(=O)N[C@@H](C(=O)N2CCC3(CC2)C(=O)N(C)C(=O)N3c2ccc3[nH]ncc3c2)C(C)C)c1` [Example 63, (R)—N-(1-(1-(1H-Indazol-5-yl)-3-methyl-2,4-dioxo-1,3,8-triazaspiro[4.5]decan-8-yl)-3-methyl-1-oxobutan-2-yl)-2-fluoro-5-methoxybenzamide], the half-inhibitory concentration (IC50) lay in the range of 0.5 to 1 µM.

Turning to `CC(C)[C@@H](NC(=O)c1cc(C(F)(F)F)ccc1F)C(=O)N1CCC2(CC1)C(=O)N(C)C(=O)N2c1ccccc1` [Example 44, (R)-2-Fluoro-N-(3-methyl-1-(3-methyl-2,4-dioxo-1-phenyl-1,3,8-triazaspiro[4.5]decan-8-yl)-1-oxobutan-2-yl)-5-(trifluoromethyl)benzamide], the IC50 was less than 0.5 µM.

As to `Cc1cc(C(=O)N[C@@H](C(=O)N2CCC3(CC2)C(=O)N(C)CN3c2ccccc2)C(C)C)ccn1` [Example 137, (R)-2-Methyl-N-(3-methyl-1-(3-methyl-4-oxo-1-phenyl-1,3,8-triazaspiro[4.5]decan-8-yl)-1-oxobutan-2-yl)isonicotinamide], the IC50 is no less than 1 µM.

For `CC(C)[C@@H](NC(=O)c1cccc(C2CC2)c1)C(=O)N1CCC2(CC1)C(=O)N(C)CN2c1ccccc1` [Example 142, (R)-3-Cyclopropyl-N-(3-methyl-1-(3-methyl-4-oxo-1-phenyl-1,3,8-triazaspiro[4.5]decan-8-yl)-1-oxobutan-2-yl)benzamide], the IC50 is less than 0.5 µM.

`CC(C)[C@@H](NC(=O)c1ccccc1)C(=O)N1CCC2(CC1)C(=O)N(C)C(=O)N2c1ccc2[nH]ncc2c1` [Example 233, (R)—N-(1-(1-(1H-Indazol-5-yl)-3-methyl-2,4-dioxo-1,3,8-triazaspiro[4.5]decan-8-yl)-3-methyl-1-oxobutan-2-yl)benzamide]: the IC50 was no less than 1 µM.

On to `CN1C(=O)N(Cc2ccc3nccnc3c2)C2(CCN(C(=O)[C@H](NC(=O)c3cc(C(F)(F)F)ccc3F)C3CC3)CC2)C1=O` [Example 109, (R)—N-(1-Cyclopropyl-2-(3-methyl-2,4-dioxo-1-(quinoxalin-6-ylmethyl)-1,3,8-triazaspiro[4.5]decan-8-yl)-2-oxoethyl)-2-fluoro-5-(trifluoromethyl)benzamide], for which the IC50 is less than 0.5 µM.

With `CC(C)[C@@H](NC(=O)c1cc(C(F)(F)F)ccc1F)C(=O)N1CCC2(CC1)C(=O)N(C)CN2c1ccc(=O)n(C)c1` [Example 204, (R)-2-Fluoro-N-(3-methyl-1-(3-methyl-1-(1-methyl-6-oxo-1,6-dihydropyridin-3-yl)-4-oxo-1,3,8-triazaspiro[4.5]decan-8-yl)-1-oxobutan-2-yl)-5-(trifluoromethyl)benzamide], the concentration for half-maximal inhibition (IC50) is less than 0.5 µM.

On to `CCc1ccc(F)c(C(=O)N[C@@H](C(=O)N2CCC3(CC2)C(=O)N(C)CN3c2ccc3nc[nH]c3c2)C(C)C)c1` [Example 216, (R)—N-(1-(1-(1H-Benzo[d]imidazol-6-yl)-3-methyl-4-oxo-1,3,8-triazaspiro[4.5]decan-8-yl)-3-methyl-1-oxobutan-2-yl)-5-ethyl-2-fluorobenzamide], for which the IC50 is less than 0.5 µM.

For the compound `CC(C)[C@@H](NC(=O)c1cc(C(F)(F)F)ccc1F)C(=O)N1CCC2(CC1)C(=O)N(C)C(=O)N2c1ccc(OC(F)(F)F)cc1` [Example 26, (R)-2-Fluoro-N-(3-methyl-1-(3-methyl-2,4-dioxo-1-(4-(trifluoromethoxy)phenyl)-1,3,8-triazaspiro[4.5]decan-8-yl)-1-oxobutan-2-yl)-5-(trifluoromethyl)benzamide], the 50% inhibitory concentration (IC50) was less than 0.5 µM.

With `CC(C)[C@@H](NC(=O)c1cc(C(F)(F)F)ccc1F)C(=O)N1CCC2(CC1)C(=O)N(C)C(=O)N2c1ccc(NC2CNC2)cc1` [Example 86, (R)—N-(1-(1-(4-(Azetidin-3-ylamino)phenyl)-3-methyl-2,4-dioxo-1,3,8-triazaspiro[4.5]decan-8-yl)-3-methyl-1-oxobutan-2-yl)-2-fluoro-5-(trifluoromethyl)benzamide trifluoroacetic Acid Salt], the IC50 is no less than 1 µM.

As for `CN1C(=O)N(Cc2ccc3nccnc3c2)C2(CCN(C(=O)[C@H](NC(=O)c3cc(C(F)(F)F)ccc3F)C3CCC3)CC2)C1=O` [Example 110, (R)—N-(1-Cyclobutyl-2-(3-methyl-2,4-dioxo-1-(quinoxalin-6-ylmethyl)-1,3,8-triazaspiro[4.5]decan-8-yl)-2-oxoethyl)-2-fluoro-5-(trifluoromethyl)benzamide], the IC50 was less than 0.5 µM.

Take `CC(C)[C@@H](NC(=O)c1cc(C(F)(F)F)ccc1F)C(=O)N1CCC2(CC1)C(=O)N(C)C(=O)N2c1ccc2[nH]c(=O)oc2c1` [Example 28, (R)-2-Fluoro-N-(3-methyl-1-(3-methyl-2,4-dioxo-1-(2-oxo-2,3-dihydrobenzo[d]oxazol-6-yl)-1,3,8-triazaspiro[4.5]decan-8-yl)-1-oxobutan-2-yl)-5-(trifluoromethyl)benzamide]: the half-inhibitory concentration (IC50) was less than 0.5 µM.

Regarding `CC(C)[C@@H](NC(=O)c1cc(C(F)(F)F)ccc1F)C(=O)N1CCC2(CC1)C(=O)N(C)C(=O)N2c1ccc2oc(=O)[nH]c2c1` [Example 29, (R)-2-Fluoro-N-(3-methyl-1-(3-methyl-2,4-dioxo-1-(2-oxo-2,3-dihydrobenzo[d]oxazol-5-yl)-1,3,8-triazaspiro[4.5]decan-8-yl)-1-oxobutan-2-yl)-5-(trifluoromethyl)benzamide], the IC50 fell in the range of 0.5 to 1 µM.

Regarding `COc1cc(N2CN(C)C(=O)C23CCN(C(=O)[C@H](NC(=O)c2cc(C(F)(F)F)ccc2F)C(C)C)CC3)ccc1C(=O)O` [Example 151], the IC50 is less than 0.5 µM.

Take `CC(C)[C@@H](NC(=O)c1cc(Cl)ccc1F)C(=O)N1CCC2(CC1)C(=O)N(C)C(=O)N2c1ccccc1` [Example 43, (R)-5-Chloro-2-fluoro-N-(3-methyl-1-(3-methyl-2,4-dioxo-1-phenyl-1,3,8-triazaspiro[4.5]decan-8-yl)-1-oxobutan-2-yl)benzamide]: the IC50 was less than 0.5 µM.

Consider `Cc1cccc(C(=O)N[C@@H](C(=O)N2CCC3(CC2)C(=O)N(C)CN3c2cccnc2)C(C)C)c1` [Example 195, (R)-3-Methyl-N-(3-methyl-1-(3-methyl-4-oxo-1-(pyridin-3-yl)-1,3,8-triazaspiro[4.5]decan-8-yl)-1-oxobutan-2-yl)benzamide], for which the IC50 was no less than 1 µM.

What is called IC50 is the point on the concentration scale where inhibition reaches its midpoint.
